Experimental data published in PMC3013012 (The Journal of Biological Chemistry, 2010).
Square brackets hold non-standard residues; d marks the D form. Peptide text beside a SMILES is read from it. Lys(Me3) = C[N+](C)(C)CCCC[C@H](N)C(=O)O; Lys(Me2) = CN(C)CCCC[C@H](N)C(=O)O

Tests used:
human Cbx7 chromodomain = molecular target: T1, human Cbx7 chromodomain (Homo sapiens, UniProt O95931); assay: Fluorescence polarization peptide binding
T1 sequence (O95931 8-62): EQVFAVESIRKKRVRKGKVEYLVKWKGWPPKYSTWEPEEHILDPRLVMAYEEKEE

human Cbx8 chromodomain = molecular target: T2, human Cbx8 chromodomain (Homo sapiens, UniProt Q9HC52); assay: Fluorescence polarization peptide binding
T2 sequence (Q9HC52 8-61): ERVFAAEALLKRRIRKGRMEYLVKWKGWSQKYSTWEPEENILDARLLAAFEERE

Compound | Kd (human Cbx7 chromodomain) [µM] | Kd (human Cbx8 chromodomain) [µM]
CC[C@H](C)[C@H](NC(=O)CNC(=O)[C@@H](N)Cc1c[nH]cn1)C(=O)N[C@@H](C)C(=O)N[C@H](C(=O)N[C@@H](CCCC[N+](C)(C)C)C(=O)N[C@@H](CO)C(=O)N[C@H](C(=O)N[C@@H](CC(N)=O)C(=O)O)[C@@H](C)O)[C@@H](C)CC [IAIK(1178)S] (H-HGIAI[Lys(Me3)]STN-OH) | 5 ± 0.8 | 
CC[C@H](C)[C@H](NC(=O)CNC(=O)[C@H](Cc1c[nH]cn1)NC(=O)[C@@H](NC(=O)[C@H](CO)NC(=O)[C@H](CCCCN(C)C)NC(=O)[C@H](CC(C)C)NC(=O)[C@H](C)NC(=O)[C@H](Cc1ccccc1)NC(=O)CNC(=O)[C@H](CCCNC(=N)N)NC(=O)[C@@H](NC(=O)[C@H](CO)NC(=O)[C@H](CCCCN(C)C)NC(=O)[C@@H](NC(=O)[C@H](C)NC(=O)[C@@H](NC(=O)[C@H](CCC(N)=O)NC(=O)[C@@H](N)CCCNC(=N)N)C(C)C)C(C)C)[C@@H](C)O)[C@@H](C)O)C(=O)N[C@@H](C)C(=O)N[C@H](C(=O)N[C@@H](CCCCN(C)C)C(=O)N[C@@H](CO)C(=O)N[C@H](C(=O)N[C@@H](CC(N)=O)C(=O)O)[C@@H](C)O)[C@@H](C)CC [Kme2(1162,1170,1178)] (H-RQVAV[Lys(Me2)]STRGFAL[Lys(Me2)]STHGIAI[Lys(Me2)]STN-OH) | 15 ± 0.5 | 180 ± 80
CC[C@H](C)[C@H](NC(=O)CNC(=O)[C@H](Cc1c[nH]cn1)NC(=O)[C@@H](NC(=O)[C@H](CO)NC(=O)[C@H](CCCC[N+](C)(C)C)NC(=O)[C@H](CC(C)C)NC(=O)[C@H](C)NC(=O)[C@H](Cc1ccccc1)NC(=O)CNC(=O)[C@H](CCCNC(=N)N)NC(=O)[C@@H](NC(=O)[C@H](CO)NC(=O)[C@H](CCCC[N+](C)(C)C)NC(=O)[C@@H](NC(=O)[C@H](C)NC(=O)[C@@H](NC(=O)[C@H](CCC(N)=O)NC(=O)[C@@H](N)CCCNC(=N)N)C(C)C)C(C)C)[C@@H](C)O)[C@@H](C)O)C(=O)N[C@@H](C)C(=O)N[C@H](C(=O)N[C@@H](CCCC[N+](C)(C)C)C(=O)N[C@@H](CO)C(=O)N[C@H](C(=O)N[C@@H](CC(N)=O)C(=O)O)[C@@H](C)O)[C@@H](C)CC [Kme3(1162,1170,1178)] (H-RQVAV[Lys(Me3)]STRGFAL[Lys(Me3)]STHGIAI[Lys(Me3)]STN-OH) | 1.2 ± 0.2 | 6 ± 2
